{"source": "patent US20260158177A1", "about": "“COMPOUNDS SPECIFIC TO GRANZYME B AND USES THEREOF” (CYTOSITE BIOPHARMA INC., priority 2021, published 2026)", "key": {"[1]": {"target": "T1, granzyme B (Human lymphocytes) (Homo sapiens, UniProt P10144)", "T1 construct": "Matrigel Mouse Model of Active and Pro-Form Granzyme B; purchased Enzo Life Sciences; host or cells: human lymphocytes", "T1 sequence (P10144 21-247)": "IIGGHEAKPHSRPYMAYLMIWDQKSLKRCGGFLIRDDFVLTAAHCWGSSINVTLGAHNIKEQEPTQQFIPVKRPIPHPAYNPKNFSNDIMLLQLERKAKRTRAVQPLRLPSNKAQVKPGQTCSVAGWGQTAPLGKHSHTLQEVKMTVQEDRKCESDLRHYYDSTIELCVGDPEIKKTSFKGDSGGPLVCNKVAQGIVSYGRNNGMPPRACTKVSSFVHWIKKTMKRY", "assay": "In vivo PET/CT imaging of ^18F-granzyme B tracers in a Matrigel mouse model of active and pro-form granzyme B", "settings": "female nude athymic mice with granzyme B/Matrigel implants, iv ^18F-radiotracer, PET 75-minutes post-injection", "description": "Female nude athymic (5-6 weeks, 15-30 g) mice were purchased from Jackson Laboratories. Both granzyme B (Human lymphocytes, Enzo Life Sciences) and inactivated human pro-form granzyme B (R&D Systems) were also commercially purchased. […] Each granzyme B enzyme was then brought up to a final concentration of 0.05 μg/ul using phosphate buffered saline (GE, Hyclone). Matrigel (65 μl, Corning) was mixed with 15 μl of 0.75 μg of each granzyme B enzyme (granzyme B and pro-form granzyme B) within each Eppendorf tube. The mice were then anesthetized with 2.5-3% isoflurane mixed with oxygen. Approximately 60-80 μl of granzyme B/Matrigel or the pro-form granzyme B/Matrigel were then injected using a 28-gauge X 0.5-inch insulin syringe (Terumo) to form implants on the right and left shoulder flanks of the mice. Approximately five minutes later, the mice were administered the ^18F-radiotracer via a bolus intravenous injection (approximately 150 μCi in a total volume of 100 ul saline plus an additional ˜25 ul saline to flush the catheter line). After the radiotracer injection, the catheter was removed and measured for any remaining residual radioactivity. The mice were then placed back in their cage for recovery. A nanoScan® PET/CT (Mediso, Hungary) was used for micro-PET/CT imaging in which 15-minute static PET scans were conducted 75-minutes post-injection of the radiotracer. Tera-Tomo™ 3D PET iterative reconstruction along with scatter correction were then conducted post-acquisition. A short high-resolution computed tomography (CT) scan was also performed immediately after to allow for anatomical registration. PET signal in the granzyme B implants were quantified by manually drawing regions of interest (ROIs) over the Matrigel implants based on the fused PET/CT images and the corresponding activity values were determined with VivoQuant (Invicro, Massachusetts). All values were represented as % injected dose per gram (% ID/g). Target to background ratios (TBR's) were then calculated by dividing the granzyme B % ID/g value by the pro-form granzyme B % ID/g value. PET imaging timepoints and granzyme B concentrations used in these experiments were determined in previous studies (data not shown)."}, "[2]": {"assay": "Radioactive metabolite screening in male CD-1 mouse urine by radiometric HPLC", "type": "in vivo, male CD-1 mice", "settings": "for 60 minutes (% parent in urine): male CD-1 mouse urine, 60 minutes post tail vein injection, n=3; for radiometabolites in urine: mice, urine at 60 min post dose", "description": "Radioactive metabolite screening studies were performed by injection of [18F] granzyme B tracers in male CD-1 mice followed by analysis of urine samples at 60 minutes by radiometric HPLC.\nBriefly, male CD-1 mice were anesthetized prior to dosing with approximately 250 μCi [^18F] granzyme B tracer via tail vein injection (n=3 mice). Urine samples were collected at the 60 minutes post-injection following anesthesia and cervical dislocation. Samples were diluted 100-fold in water prior to injection by HPLC.\nDiluted samples were then analyzed on an Agilent 1290 series UPLC UV coupled with a BGO coincidence detector. The HPLC method utilized either 1) Phenomenex Kinetex EVO C18 (150×2.1 mm, 1.7 micron); 100 μL injection volume; flow-rate: 0.5 mL/min; solvent for A: 0.1% formic acid in water; solvent for B: 100% acetonitrile; gradient: initial hold at 5% B hold for 1 min, 5% to 40% in 7 min, hold 40% B for 2 min, increase from 40% to 95% B in 1 min, hold 95% B for 2 min, and then return to 5% B to reequilibrate, or 2) Phenomenex Monolithic C18 (100×4.6 mm); 100 μL injection volume; flow-rate: 1.2 mL/min; solvent for A: 20 mM ammonium acetate in water; solvent for B: 100% methanol; gradient: same as above."}}, "note": "Numbered stars: 1 amine (or outer) side, 2 acyl side, 3 side chain; on linkers, the order of the positions; unused ones are H or OH. Square brackets hold non-standard residues; d marks the D form. Peptide text beside a SMILES is read from it. * marks the point of attachment. X2 = O=C1CN2CCN(CCN(CC3CCN(CC(=O)*)CC3)CC2)CC(=O)[O][Al]([F])[O]1; NOTA(AlF) = O=C1CN2CCN(CCN(CC(=O)*)CC2)CC(=O)[O][Al]([F])[O]1; Haic = O=C1[C@@H](N[*:1])CCc2cccc3c2N1[C@H](C(=O)[*:2])C3; NH(5-HO-2-oxo-oxolan-4-yl) = O=C1CC(N*)C(O)O1; X1 = O=C(CN1CCN([*:1])CC1)[*:2]", "data": [{"smiles": "CC[C@H](C)[C@H](NC(=O)COCCNC(=O)[C@@H](CCC(=O)O)NC(=O)[C@@H](CCC(=O)O)NC(=O)CN1CCC(CN2CCN3CCN(CC2)CC(=O)[O][Al]([F])[O]C(=O)C3)CC1)C(=O)N[C@H]1CCc2cccc3c2N(C1=O)[C@H](C(=O)NC1CC(=O)OC1O)C3", "note": "(stereo partly shown) [Compound ^18F-4-Al]", "values": [{"measurement": "in vivo imaging activity", "setting": "[1]", "result": "good imaging activity"}, {"measurement": "60 minutes (% parent in urine)", "setting": "[2]", "result": 100, "unit": "%"}, {"measurement": "radiometabolites in urine", "setting": "[2]", "result": "no radiometabolites were observed"}]}, {"smiles": "CC[C@H](C)[C@H](NC(=O)CCNC(=O)CCNC(=O)CN(CC(=O)O)C(=O)CN1CCC(CN2CCN3CCN(CC2)CC(=O)[O][Al]([F])[O]C(=O)C3)CC1)C(=O)N[C@H]1CCc2cccc3c2N(C1=O)[C@H](C(=O)NC1CC(=O)OC1O)C3", "note": "(stereo partly shown) [18F-5-Al]", "values": [{"measurement": "60 minutes (% parent in urine)", "setting": "[2]", "result": 100, "unit": "%"}]}, {"smiles": "CC[C@H](C)[C@H](NC(=O)CNC(=O)CNC(=O)[C@H](CCC(=O)O)NC(=O)CN1CCC(CN2CCN3CCN(CC2)CC(=O)[O][Al]([F])[O]C(=O)C3)CC1)C(=O)N[C@H]1CCc2cccc3c2N(C1=O)[C@H](C(=O)NC1CC(=O)OC1O)C3", "note": "(stereo partly shown) [18F-2-Al] (X2-EGGI[Haic]-{NH(5-HO-2-oxo-oxolan-4-yl)})", "values": [{"measurement": "in vivo imaging activity", "setting": "[1]", "result": "good imaging activity"}]}, {"smiles": "CC[C@H](C)[C@H](NC(=O)CCNC(=O)CCNC(=O)[C@@H](CCC(=O)O)NC(=O)CN1CCC(CN2CCN3CCN(CC2)CC(=O)[O][Al]([F])[O]C(=O)C3)CC1)C(=O)N[C@H]1CCc2cccc3c2N(C1=O)[C@H](C(=O)NC1CC(=O)OC1O)C3", "note": "(stereo partly shown) [Compound ^18F-1-Al]", "values": [{"measurement": "in vivo imaging activity", "setting": "[1]", "result": "good imaging activity"}, {"measurement": "60 minutes (% parent in urine)", "setting": "[2]", "result": 100, "unit": "%"}, {"measurement": "radiometabolites in urine", "setting": "[2]", "result": "no radiometabolites were observed"}]}, {"smiles": "CC[C@H](C)[C@H](NC(=O)COCCNC(=O)[C@@H](CCC(=O)O)NC(=O)[C@@H](CCC(=O)O)NC(=O)CN1CCN(C(=O)CN2CCN3CCN(CC2)CC(=O)[O][Al]([F])[O]C(=O)C3)CC1)C(=O)N[C@H]1CCc2cccc3c2N(C1=O)[C@H](C(=O)NC1CC(=O)OC1O)C3", "note": "(stereo partly shown) [Compound ^18F-10-Al]", "values": [{"measurement": "in vivo imaging activity", "setting": "[1]", "result": "good imaging activity"}]}, {"smiles": "CC[C@H](C)[C@H](NC(=O)CCNC(=O)CC[C@H](NC(=O)CN1CCC(CN2CCN3CCN(CC2)CC(=O)[O][Al]([F])[O]C(=O)C3)CC1)C(=O)O)C(=O)N[C@H]1CCc2cccc3c2N(C1=O)[C@H](C(=O)NC1CC(=O)OC1O)C3", "note": "(stereo partly shown) [18F-6-Al]", "values": [{"measurement": "60 minutes (% parent in urine)", "setting": "[2]", "result": 66.3, "unit": "%"}]}, {"smiles": "CC[C@H](C)[C@H](NC(=O)CNC(=O)CNC(=O)[C@H](CCC(=O)O)NC(=O)CN1CCN(C(=O)CN2CCN3CCN(CC2)CC(=O)[O][Al]([F])[O]C(=O)C3)CC1)C(=O)N[C@H]1CCc2cccc3c2N(C1=O)[C@H](C(=O)NC1CC(=O)OC1O)C3", "note": "(stereo partly shown) [18F-8-Al] ({NOTA(AlF)}-[X1]EGGI[Haic]-{NH(5-HO-2-oxo-oxolan-4-yl)})", "values": [{"measurement": "in vivo imaging activity", "setting": "[1]", "result": "good imaging activity"}]}, {"smiles": "CC[C@H](C)[C@H](NC(=O)CCNC(=O)CCNC(=O)[C@@H](CCC(=O)O)NC(=O)CN1CCN(C(=O)CN2CCN3CCN(CC2)CC(=O)[O][Al]([F])[O]C(=O)C3)CC1)C(=O)N[C@H]1CCc2cccc3c2N(C1=O)[C@H](C(=O)NC1CC(=O)OC1O)C3", "note": "(stereo partly shown) [Compound ^18F-12-Al]", "values": [{"measurement": "in vivo imaging activity", "setting": "[1]", "result": "good imaging activity"}]}, {"smiles": "CC[C@H](C)[C@H](NC(=O)CCNC(=O)CCNC(=O)CN(CC(=O)O)C(=O)CN1CCN(C(=O)CN2CCN3CCN(CC2)CC(=O)[O][Al]([F])[O]C(=O)C3)CC1)C(=O)N[C@H]1CCc2cccc3c2N(C1=O)[C@H](C(=O)NC1CC(=O)OC1O)C3", "note": "(stereo partly shown) [Compound ^18F-13-Al]", "values": [{"measurement": "in vivo imaging activity", "setting": "[1]", "result": "good imaging activity"}]}, {"smiles": "CC[C@H](C)[C@H](NC(=O)CCNC(=O)CN(CC(=O)O)C(=O)CCNC(=O)CN1CCC(CN2CCN3CCN(CC2)CC(=O)[O][Al]([F])[O]C(=O)C3)CC1)C(=O)N[C@H]1CCc2cccc3c2N(C1=O)[C@H](C(=O)NC1CC(=O)OC1O)C3", "note": "(stereo partly shown) [Compound ^18F-3-Al]", "values": [{"measurement": "in vivo imaging activity", "setting": "[1]", "result": "good imaging activity"}, {"measurement": "60 minutes (% parent in urine)", "setting": "[2]", "result": 100, "unit": "%"}, {"measurement": "radiometabolites in urine", "setting": "[2]", "result": "no radiometabolites were observed"}]}]}
